{
  "source": "patent US20100137449A1",
  "about": "“SUBSTITUTED 1,3-CYCLOPENTADIONE MULTI-TARGET PROTEIN KINASE MODULATORS OF CANCER, ANGIOGENESIS AND THE INFLAMMATORY PATHWAYS ASSOCIATED THEREWITH” (METAPROTEOMICS, LLC, priority 2007, published 2010)",
  "assay_in_all_cases": "KinaseProfiler Assay",
  "key": {"[1]": {"biological_target": "Abl(m) (Mus musculus, UniProt P00520)"}, "[2]": {"biological_target": "Arg(h) (Homo sapiens, UniProt P42684)"}, "[3]": {"biological_target": "CDK2/cyclinE(h) (Homo sapiens, UniProt P24941)"}, "[4]": {"biological_target": "CDK5/p35(h) (Homo sapiens, UniProt Q00535)", "sequence (Q00535 whole entry)": "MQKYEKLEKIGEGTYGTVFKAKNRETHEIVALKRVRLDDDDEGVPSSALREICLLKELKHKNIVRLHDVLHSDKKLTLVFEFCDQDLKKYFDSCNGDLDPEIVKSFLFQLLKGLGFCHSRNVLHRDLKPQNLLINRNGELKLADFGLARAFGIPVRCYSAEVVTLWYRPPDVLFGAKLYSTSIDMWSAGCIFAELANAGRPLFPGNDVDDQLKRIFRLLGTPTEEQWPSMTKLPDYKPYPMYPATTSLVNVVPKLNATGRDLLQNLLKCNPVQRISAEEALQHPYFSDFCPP", "sequence (Q15078 whole entry partner)": "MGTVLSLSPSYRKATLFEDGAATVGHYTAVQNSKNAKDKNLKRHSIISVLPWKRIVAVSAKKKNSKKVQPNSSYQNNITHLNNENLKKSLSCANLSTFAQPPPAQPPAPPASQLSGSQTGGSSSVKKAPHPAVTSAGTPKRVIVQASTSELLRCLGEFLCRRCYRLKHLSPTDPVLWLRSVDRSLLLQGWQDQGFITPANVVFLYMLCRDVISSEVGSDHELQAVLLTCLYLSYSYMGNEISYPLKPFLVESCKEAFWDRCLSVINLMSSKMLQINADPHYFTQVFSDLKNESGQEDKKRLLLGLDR"}, "[5]": {"biological_target": "FGFR1(V561M)(h) (Homo sapiens, UniProt P11362, V561M)"}, "[6]": {"biological_target": "Fms(h) (Homo sapiens, UniProt P07333)"}, "[7]": {"biological_target": "T1, IKKα(h) (Homo sapiens, UniProt O15111)", "T1 sequence (O15111 1-745)": "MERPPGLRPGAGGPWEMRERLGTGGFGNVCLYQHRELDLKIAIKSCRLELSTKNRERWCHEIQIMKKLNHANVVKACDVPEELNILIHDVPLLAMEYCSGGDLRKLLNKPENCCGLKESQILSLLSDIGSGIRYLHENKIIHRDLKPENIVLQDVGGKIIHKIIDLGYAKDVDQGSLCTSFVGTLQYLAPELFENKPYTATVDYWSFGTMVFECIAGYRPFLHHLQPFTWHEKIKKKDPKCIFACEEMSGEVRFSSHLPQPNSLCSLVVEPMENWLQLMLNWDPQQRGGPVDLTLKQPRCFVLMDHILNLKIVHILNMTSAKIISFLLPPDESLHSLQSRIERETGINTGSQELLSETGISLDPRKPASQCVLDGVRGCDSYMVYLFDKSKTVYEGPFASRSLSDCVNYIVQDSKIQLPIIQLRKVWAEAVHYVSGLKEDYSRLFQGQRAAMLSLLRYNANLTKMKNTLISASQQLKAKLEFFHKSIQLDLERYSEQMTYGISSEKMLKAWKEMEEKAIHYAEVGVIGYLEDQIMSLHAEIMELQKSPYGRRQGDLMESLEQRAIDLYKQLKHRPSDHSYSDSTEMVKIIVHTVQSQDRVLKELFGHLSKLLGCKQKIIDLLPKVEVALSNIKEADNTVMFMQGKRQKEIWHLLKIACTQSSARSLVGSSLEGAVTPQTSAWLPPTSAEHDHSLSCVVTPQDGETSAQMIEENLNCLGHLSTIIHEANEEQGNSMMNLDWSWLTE"}, "[8]": {"biological_target": "IR(h) (Homo sapiens, UniProt P06213)", "sequence (P06213 28-1382)": "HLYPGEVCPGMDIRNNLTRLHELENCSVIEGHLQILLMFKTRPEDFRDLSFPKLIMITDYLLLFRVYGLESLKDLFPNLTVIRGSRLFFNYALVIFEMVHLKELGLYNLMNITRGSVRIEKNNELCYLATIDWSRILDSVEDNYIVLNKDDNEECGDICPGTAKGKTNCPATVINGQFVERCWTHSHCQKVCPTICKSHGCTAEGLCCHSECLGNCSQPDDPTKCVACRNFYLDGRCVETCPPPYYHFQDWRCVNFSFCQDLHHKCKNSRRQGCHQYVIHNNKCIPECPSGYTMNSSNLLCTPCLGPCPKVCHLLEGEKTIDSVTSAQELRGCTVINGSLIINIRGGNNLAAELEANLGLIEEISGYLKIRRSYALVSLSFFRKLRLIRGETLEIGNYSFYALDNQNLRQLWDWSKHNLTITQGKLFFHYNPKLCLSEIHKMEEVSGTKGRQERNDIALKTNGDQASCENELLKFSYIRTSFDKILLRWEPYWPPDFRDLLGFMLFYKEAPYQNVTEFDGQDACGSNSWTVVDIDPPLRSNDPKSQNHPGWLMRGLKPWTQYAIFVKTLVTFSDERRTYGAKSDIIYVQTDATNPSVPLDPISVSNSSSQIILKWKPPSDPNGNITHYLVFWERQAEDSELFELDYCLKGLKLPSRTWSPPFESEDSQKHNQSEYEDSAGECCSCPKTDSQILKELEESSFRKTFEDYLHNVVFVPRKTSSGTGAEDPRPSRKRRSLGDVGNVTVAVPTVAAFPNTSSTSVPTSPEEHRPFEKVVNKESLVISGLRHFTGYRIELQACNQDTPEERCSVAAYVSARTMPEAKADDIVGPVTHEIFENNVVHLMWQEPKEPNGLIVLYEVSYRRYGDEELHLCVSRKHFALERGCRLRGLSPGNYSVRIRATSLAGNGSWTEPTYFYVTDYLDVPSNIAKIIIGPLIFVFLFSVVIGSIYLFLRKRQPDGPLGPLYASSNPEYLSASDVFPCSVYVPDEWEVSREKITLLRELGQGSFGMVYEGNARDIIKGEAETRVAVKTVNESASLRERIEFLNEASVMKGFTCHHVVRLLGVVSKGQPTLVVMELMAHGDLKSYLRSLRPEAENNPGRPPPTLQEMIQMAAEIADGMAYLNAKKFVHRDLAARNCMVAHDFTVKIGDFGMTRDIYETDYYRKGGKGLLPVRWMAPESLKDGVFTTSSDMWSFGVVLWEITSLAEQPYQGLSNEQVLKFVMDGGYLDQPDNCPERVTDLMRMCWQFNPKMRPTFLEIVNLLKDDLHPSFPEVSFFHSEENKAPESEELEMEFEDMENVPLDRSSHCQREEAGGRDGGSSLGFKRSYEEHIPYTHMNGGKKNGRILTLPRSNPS"}, "[9]": {"biological_target": "Lyn(h) (Homo sapiens, UniProt P07948)", "sequence (P07948 whole entry)": "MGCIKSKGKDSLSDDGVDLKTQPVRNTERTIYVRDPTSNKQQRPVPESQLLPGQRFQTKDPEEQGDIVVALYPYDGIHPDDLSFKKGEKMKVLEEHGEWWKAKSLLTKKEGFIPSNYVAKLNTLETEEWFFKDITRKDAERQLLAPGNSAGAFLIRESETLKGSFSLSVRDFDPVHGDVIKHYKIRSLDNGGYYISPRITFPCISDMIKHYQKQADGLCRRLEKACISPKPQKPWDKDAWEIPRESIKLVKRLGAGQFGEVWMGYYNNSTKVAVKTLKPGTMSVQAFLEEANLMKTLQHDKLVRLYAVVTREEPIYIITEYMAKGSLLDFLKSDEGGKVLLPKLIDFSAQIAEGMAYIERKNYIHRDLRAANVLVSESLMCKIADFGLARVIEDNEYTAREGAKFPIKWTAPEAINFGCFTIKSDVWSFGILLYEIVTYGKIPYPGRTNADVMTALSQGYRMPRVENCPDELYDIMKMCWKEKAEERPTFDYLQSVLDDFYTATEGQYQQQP"}, "[10]": {"biological_target": "PAK5(h) (Homo sapiens, UniProt Q9P286)", "sequence (Q9P286 whole entry)": "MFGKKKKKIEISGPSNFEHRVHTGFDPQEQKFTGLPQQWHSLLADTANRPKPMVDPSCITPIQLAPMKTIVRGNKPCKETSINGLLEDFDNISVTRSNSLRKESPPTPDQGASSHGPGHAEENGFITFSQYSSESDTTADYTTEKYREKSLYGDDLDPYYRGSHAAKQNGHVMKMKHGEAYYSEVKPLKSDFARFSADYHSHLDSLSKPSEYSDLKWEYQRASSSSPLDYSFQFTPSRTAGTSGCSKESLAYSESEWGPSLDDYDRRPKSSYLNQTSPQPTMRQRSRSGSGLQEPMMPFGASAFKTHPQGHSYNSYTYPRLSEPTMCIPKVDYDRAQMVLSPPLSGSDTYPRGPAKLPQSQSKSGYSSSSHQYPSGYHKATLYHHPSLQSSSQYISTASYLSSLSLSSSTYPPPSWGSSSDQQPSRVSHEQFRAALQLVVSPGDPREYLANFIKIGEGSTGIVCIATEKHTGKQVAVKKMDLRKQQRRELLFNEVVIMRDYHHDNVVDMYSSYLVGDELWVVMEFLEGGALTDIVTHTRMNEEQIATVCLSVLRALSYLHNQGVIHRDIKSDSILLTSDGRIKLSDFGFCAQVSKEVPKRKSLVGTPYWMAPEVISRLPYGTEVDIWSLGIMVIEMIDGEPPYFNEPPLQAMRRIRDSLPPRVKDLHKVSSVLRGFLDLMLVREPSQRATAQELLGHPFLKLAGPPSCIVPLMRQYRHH"}, "[11]": {"biological_target": "PASK(h) (Homo sapiens, UniProt Q96RG2)"}, "[12]": {"biological_target": "Rsk1(r) (Rattus norvegicus, UniProt Q63531)", "sequence (Q63531 whole entry)": "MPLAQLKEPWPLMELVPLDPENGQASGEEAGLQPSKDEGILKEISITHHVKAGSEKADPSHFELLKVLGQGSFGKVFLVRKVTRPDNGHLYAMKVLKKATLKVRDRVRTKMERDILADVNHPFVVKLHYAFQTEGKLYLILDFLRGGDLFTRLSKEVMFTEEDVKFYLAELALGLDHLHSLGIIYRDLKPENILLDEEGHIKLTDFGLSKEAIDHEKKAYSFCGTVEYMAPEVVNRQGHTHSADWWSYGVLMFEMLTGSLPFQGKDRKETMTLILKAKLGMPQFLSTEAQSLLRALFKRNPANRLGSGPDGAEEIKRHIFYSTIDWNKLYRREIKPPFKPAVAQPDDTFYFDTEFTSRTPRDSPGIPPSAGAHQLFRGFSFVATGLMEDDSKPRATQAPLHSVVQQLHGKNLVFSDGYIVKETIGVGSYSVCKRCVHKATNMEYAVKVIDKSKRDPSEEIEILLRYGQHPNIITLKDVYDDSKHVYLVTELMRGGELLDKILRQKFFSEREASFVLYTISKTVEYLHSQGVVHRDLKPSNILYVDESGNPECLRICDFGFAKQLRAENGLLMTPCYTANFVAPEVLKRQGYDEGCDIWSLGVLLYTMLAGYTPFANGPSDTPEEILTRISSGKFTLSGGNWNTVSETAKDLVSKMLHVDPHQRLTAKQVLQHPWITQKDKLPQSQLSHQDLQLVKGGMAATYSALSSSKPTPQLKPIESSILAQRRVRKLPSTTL"}, "[13]": {"biological_target": "TrkA(h) (Homo sapiens, UniProt P04629)", "sequence (P04629 33-796)": "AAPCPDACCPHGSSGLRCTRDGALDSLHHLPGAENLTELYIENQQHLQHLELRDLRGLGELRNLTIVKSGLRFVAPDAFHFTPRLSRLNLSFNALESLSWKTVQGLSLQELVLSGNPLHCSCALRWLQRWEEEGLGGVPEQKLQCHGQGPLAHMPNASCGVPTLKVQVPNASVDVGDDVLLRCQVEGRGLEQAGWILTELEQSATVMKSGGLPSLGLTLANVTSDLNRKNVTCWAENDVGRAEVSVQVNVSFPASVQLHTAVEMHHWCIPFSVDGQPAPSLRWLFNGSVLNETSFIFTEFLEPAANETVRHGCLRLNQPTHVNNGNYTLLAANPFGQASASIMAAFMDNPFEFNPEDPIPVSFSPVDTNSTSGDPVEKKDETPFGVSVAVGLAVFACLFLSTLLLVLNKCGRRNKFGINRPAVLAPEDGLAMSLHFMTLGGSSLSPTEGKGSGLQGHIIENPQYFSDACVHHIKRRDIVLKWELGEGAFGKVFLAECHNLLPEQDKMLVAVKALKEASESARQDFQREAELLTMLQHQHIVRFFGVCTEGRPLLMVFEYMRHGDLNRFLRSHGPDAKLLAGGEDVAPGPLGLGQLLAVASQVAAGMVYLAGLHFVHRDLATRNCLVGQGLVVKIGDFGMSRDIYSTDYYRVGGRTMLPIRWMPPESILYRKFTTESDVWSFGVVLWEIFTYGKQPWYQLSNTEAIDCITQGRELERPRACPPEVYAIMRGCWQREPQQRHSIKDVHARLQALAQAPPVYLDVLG"}, "[14]": {"biological_target": "T2, TSSK1(h) (Homo sapiens, UniProt Q9BXA7)", "T2 sequence (Q9BXA7 1-367)": "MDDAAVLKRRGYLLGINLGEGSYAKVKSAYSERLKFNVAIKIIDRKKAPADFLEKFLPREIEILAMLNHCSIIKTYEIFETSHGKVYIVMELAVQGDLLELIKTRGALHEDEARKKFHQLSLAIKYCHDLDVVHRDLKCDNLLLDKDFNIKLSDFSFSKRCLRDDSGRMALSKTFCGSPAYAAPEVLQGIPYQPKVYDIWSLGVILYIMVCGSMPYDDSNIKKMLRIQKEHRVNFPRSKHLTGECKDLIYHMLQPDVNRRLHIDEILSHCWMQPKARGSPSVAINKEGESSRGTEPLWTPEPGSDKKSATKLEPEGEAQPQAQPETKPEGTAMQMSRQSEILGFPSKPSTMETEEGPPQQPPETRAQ"}},
  "data": [
    {"compound": "CC(C)CCC(=O)[C@]1(O)C(O)=C(C(=O)C(C)C)C(=O)[C@H]1CCC(C)C", "note": "[TH2, tetrahydroiso-cohumulone]", "values": [
      {"measurement": "kinase inhibition", "setting": "[1]; 1 μg/ml", "result": "98% of control"},
      {"measurement": "kinase inhibition", "setting": "[1]; 5 μg/ml", "result": "91% of control"},
      {"measurement": "kinase inhibition", "setting": "[1]; 25 μg/ml", "result": "69% of control"},
      {"measurement": "kinase inhibition", "setting": "[1]; 50 μg/ml", "result": "32% of control"},
      {"measurement": "kinase inhibition", "setting": "[1]; 100 μg/ml", "result": "48% of control"},
      {"measurement": "kinase inhibition", "setting": "[2]; 1 μg/ml", "result": "92% of control"},
      {"measurement": "kinase inhibition", "setting": "[2]; 5 μg/ml", "result": "92% of control"},
      {"measurement": "kinase inhibition", "setting": "[2]; 25 μg/ml", "result": "69% of control"},
      {"measurement": "kinase inhibition", "setting": "[2]; 50 μg/ml", "result": "53% of control"},
      {"measurement": "kinase inhibition", "setting": "[2]; 100 μg/ml", "result": "43% of control"},
      {"measurement": "kinase inhibition", "setting": "[3]; 1 μg/ml", "result": "95% of control"},
      {"measurement": "kinase inhibition", "setting": "[3]; 5 μg/ml", "result": "101% of control"},
      {"measurement": "kinase inhibition", "setting": "[3]; 25 μg/ml", "result": "93% of control"},
      {"measurement": "kinase inhibition", "setting": "[3]; 50 μg/ml", "result": "71% of control"},
      {"measurement": "kinase inhibition", "setting": "[3]; 100 μg/ml", "result": "54% of control"},
      {"measurement": "kinase inhibition", "setting": "[4]; 1 μg/ml", "result": "105% of control"},
      {"measurement": "kinase inhibition", "setting": "[4]; 5 μg/ml", "result": "98% of control"},
      {"measurement": "kinase inhibition", "setting": "[4]; 25 μg/ml", "result": "106% of control"},
      {"measurement": "kinase inhibition", "setting": "[4]; 50 μg/ml", "result": "80% of control"},
      {"measurement": "kinase inhibition", "setting": "[4]; 100 μg/ml", "result": "90% of control"},
      {"measurement": "kinase inhibition", "setting": "[5]; 1 μg/ml", "result": "105% of control"},
      {"measurement": "kinase inhibition", "setting": "[5]; 5 μg/ml", "result": "107% of control"},
      {"measurement": "kinase inhibition", "setting": "[5]; 25 μg/ml", "result": "95% of control"},
      {"measurement": "kinase inhibition", "setting": "[5]; 50 μg/ml", "result": "79% of control"},
      {"measurement": "kinase inhibition", "setting": "[5]; 100 μg/ml", "result": "75% of control"},
      {"measurement": "kinase inhibition", "setting": "[6]; 1 μg/ml", "result": "116% of control"},
      {"measurement": "kinase inhibition", "setting": "[6]; 5 μg/ml", "result": "103% of control"},
      {"measurement": "kinase inhibition", "setting": "[6]; 25 μg/ml", "result": "121% of control"},
      {"measurement": "kinase inhibition", "setting": "[6]; 50 μg/ml", "result": "117% of control"},
      {"measurement": "kinase inhibition", "setting": "[6]; 100 μg/ml", "result": "98% of control"},
      {"measurement": "kinase inhibition", "setting": "[7]; 1 μg/ml", "result": "99% of control"},
      {"measurement": "kinase inhibition", "setting": "[7]; 5 μg/ml", "result": "108% of control"},
      {"measurement": "kinase inhibition", "setting": "[7]; 25 μg/ml", "result": "114% of control"},
      {"measurement": "kinase inhibition", "setting": "[7]; 50 μg/ml", "result": "114% of control"},
      {"measurement": "kinase inhibition", "setting": "[7]; 100 μg/ml", "result": "120% of control"},
      {"measurement": "kinase inhibition", "setting": "[8]; 1 μg/ml", "result": "96% of control"},
      {"measurement": "kinase inhibition", "setting": "[8]; 5 μg/ml", "result": "100% of control"},
      {"measurement": "kinase inhibition", "setting": "[8]; 25 μg/ml", "result": "80% of control"},
      {"measurement": "kinase inhibition", "setting": "[8]; 50 μg/ml", "result": "75% of control"},
      {"measurement": "kinase inhibition", "setting": "[8]; 100 μg/ml", "result": "79% of control"},
      {"measurement": "kinase inhibition", "setting": "[9]; 1 μg/ml", "result": "145% of control"},
      {"measurement": "kinase inhibition", "setting": "[9]; 5 μg/ml", "result": "146% of control"},
      {"measurement": "kinase inhibition", "setting": "[9]; 25 μg/ml", "result": "139% of control"},
      {"measurement": "kinase inhibition", "setting": "[9]; 50 μg/ml", "result": "91% of control"},
      {"measurement": "kinase inhibition", "setting": "[9]; 100 μg/ml", "result": "68% of control"},
      {"measurement": "kinase inhibition", "setting": "[10]; 1 μg/ml", "result": "106% of control"},
      {"measurement": "kinase inhibition", "setting": "[10]; 5 μg/ml", "result": "105% of control"},
      {"measurement": "kinase inhibition", "setting": "[10]; 25 μg/ml", "result": "91% of control"},
      {"measurement": "kinase inhibition", "setting": "[10]; 50 μg/ml", "result": "93% of control"},
      {"measurement": "kinase inhibition", "setting": "[10]; 100 μg/ml", "result": "61% of control"},
      {"measurement": "kinase inhibition", "setting": "[11]; 1 μg/ml", "result": "71% of control"},
      {"measurement": "kinase inhibition", "setting": "[11]; 5 μg/ml", "result": "76% of control"},
      {"measurement": "kinase inhibition", "setting": "[11]; 25 μg/ml", "result": "78% of control"},
      {"measurement": "kinase inhibition", "setting": "[11]; 50 μg/ml", "result": "80% of control"},
      {"measurement": "kinase inhibition", "setting": "[11]; 100 μg/ml", "result": "71% of control"},
      {"measurement": "kinase inhibition", "setting": "[12]; 1 μg/ml", "result": "101% of control"},
      {"measurement": "kinase inhibition", "setting": "[12]; 5 μg/ml", "result": "102% of control"},
      {"measurement": "kinase inhibition", "setting": "[12]; 25 μg/ml", "result": "93% of control"},
      {"measurement": "kinase inhibition", "setting": "[12]; 50 μg/ml", "result": "63% of control"},
      {"measurement": "kinase inhibition", "setting": "[12]; 100 μg/ml", "result": "36% of control"},
      {"measurement": "kinase inhibition", "setting": "[13]; 1 μg/ml", "result": "110% of control"},
      {"measurement": "kinase inhibition", "setting": "[13]; 5 μg/ml", "result": "111% of control"},
      {"measurement": "kinase inhibition", "setting": "[13]; 25 μg/ml", "result": "99% of control"},
      {"measurement": "kinase inhibition", "setting": "[13]; 50 μg/ml", "result": "31% of control"},
      {"measurement": "kinase inhibition", "setting": "[13]; 100 μg/ml", "result": "25% of control"},
      {"measurement": "kinase inhibition", "setting": "[14]; 1 μg/ml", "result": "105% of control"},
      {"measurement": "kinase inhibition", "setting": "[14]; 5 μg/ml", "result": "97% of control"},
      {"measurement": "kinase inhibition", "setting": "[14]; 25 μg/ml", "result": "96% of control"},
      {"measurement": "kinase inhibition", "setting": "[14]; 50 μg/ml", "result": "91% of control"},
      {"measurement": "kinase inhibition", "setting": "[14]; 100 μg/ml", "result": "86% of control"}
    ]}
  ]
}
